The source of these data is ChEMBL document CHEMBL3112479, “Synthesis and evaluation of the antimicrobial activities of 3-((5-phenyl-1,3,4-oxadiazol-2-yl)methyl)-2-thioxothiazolidin-4-one derivatives” (2014).

Values after ≈ are worked out from the molar mass of the structure shown.

Broadly, the MIC is the smallest concentration in the dilution series that meets the test's criterion for growth inhibition. Read a high MIC as weaker potency.

Experiment [1] concerns Salmonella typhimurium. Briefly: Antimicrobial activity against Salmonella typhimurium 2421 after 20 hrs by two-fold serial dilution technique. The experiment is classed as functional, Salmonella enterica subsp. enterica serovar Typhimurium. As to conditions: Salmonella enterica, 2421, 20 h.
The test system of experiment [2] is Escherichia coli. Kind of experiment: Antimicrobial activity against Escherichia coli KCTC 1924 after 20 hrs by two-fold serial dilution technique. The note with it: KCTC 1924, 20 h. The experiment is classed as functional.
Experiment [3] relates to Staphylococcus aureus. Kind of experiment: Antimicrobial activity against methicillin-resistant Staphylococcus aureus clinical isolate 3167 after 20 hrs by two-fold serial dilution technique. The experiment is classed as functional. The note with it: isolate 3167, 20 h.
Experiment [4] concerns Staphylococcus aureus. Briefly: Antimicrobial activity against Staphylococcus aureus 209 after 20 hrs by two-fold serial dilution technique. It is filed as functional. As to conditions: Staphylococcus aureus, 209, 20 h.
In experiment [5] the test system is Streptococcus mutans. Briefly: Antimicrobial activity against Streptococcus mutans 3065 after 20 hrs by two-fold serial dilution technique. The experiment is classed as functional. The note with it: Streptococcus mutans, 3065, 20 h.
Experiment [6] relates to Pseudomonas aeruginosa. Kind of experiment: Antimicrobial activity against Pseudomonas aeruginosa 2004 after 20 hrs by two-fold serial dilution technique. It is filed as functional. As to conditions: Pseudomonas aeruginosa, 2004, 20 h.
The subject of experiment [7] is Staphylococcus aureus. Briefly: Antimicrobial activity against quinolone-resistant Staphylococcus aureus clinical isolate 3519 after 20 hrs by two-fold serial dilution technique. It is filed as functional. The note with it: isolate 3519, 20 h.
The subject of experiment [8] is Staphylococcus aureus. Briefly: Antimicrobial activity against quinolone-resistant Staphylococcus aureus clinical isolate 3505 after 20 hrs by two-fold serial dilution technique. It is filed as functional. As to conditions: isolate 3505, 20 h.
The subject of experiment [9] is Salmonella typhimurium. Kind of experiment: Antimicrobial activity against Salmonella typhimurium 1926 after 20 hrs by two-fold serial dilution technique. It is filed as functional, Salmonella enterica subsp. enterica serovar Typhimurium. As to conditions: Salmonella enterica, 1926, 20 h.
The test system of experiment [10] is Escherichia coli. Kind of experiment: Antimicrobial activity against Escherichia coli CCARM 1356 after 20 hrs by two-fold serial dilution technique. It is filed as functional. As to conditions: CCARM 1356, 20 h.
Experiment [11] deals with Pseudomonas aeruginosa. Kind of experiment: Antimicrobial activity against Pseudomonas aeruginosa 2742 after 20 hrs by two-fold serial dilution technique. As to conditions: Pseudomonas aeruginosa, 2742, 20 h. It is filed as functional.
In experiment [12] the test system is Staphylococcus aureus. Briefly: Antimicrobial activity against methicillin-resistant Staphylococcus aureus clinical isolate 3506 after 20 hrs by two-fold serial dilution technique. The note with it: isolate 3506, 20 h. It is filed as functional.
The test system of experiment [13] is Staphylococcus aureus. Kind of experiment: Antimicrobial activity against Staphylococcus aureus RN4220 after 20 hrs by two-fold serial dilution technique. The experiment is classed as functional. The note with it: RN4220, 20 h.
The test system of experiment [14] is Staphylococcus aureus. Kind of experiment: Antimicrobial activity against Staphylococcus aureus 503 after 20 hrs by two-fold serial dilution technique. The note with it: Staphylococcus aureus, 503, 20 h. It is filed as functional.
In experiment [15] the test system is Candida albicans. Kind of experiment: Antimicrobial activity against Candida albicans 7535 after 20 hrs by two-fold serial dilution technique. It is filed as functional. As to conditions: Candida albicans, 7535, 20 h.

For `O=C1CSC(=S)N1Cc1nnc(-c2ccccc2)o1`, the MIC was 128 µg/mL (≈ 439 µM) in experiment [1]; 64 µg/mL (≈ 220 µM) in experiment [2]; 64 µg/mL (≈ 220 µM) in experiment [3]; 32 µg/mL (≈ 110 µM) in [4]; 64 µg/mL (≈ 220 µM) in experiment [5]; > 128 µg/mL in [6]. The MIC in [7] is 64 µg/mL (≈ 220 µM); in experiment [8] it was 64 µg/mL (≈ 220 µM); in experiment [9], 64 µg/mL (≈ 220 µM); in experiment [10], > 128 µg/mL; in [11], > 128 µg/mL; in experiment [12] it was 64 µg/mL (≈ 220 µM). Further, the MIC in experiment [13], in experiment [14] and in experiment [15] was 64 µg/mL (≈ 220 µM) each time.

Regarding `Cc1ccc(-c2nnc(CN3C(=O)CSC3=S)o2)cc1`, the MIC was 128 µg/mL (≈ 419 µM) in [1]; 64 µg/mL (≈ 210 µM) in experiment [2]; 64 µg/mL (≈ 210 µM) in [3]; 64 µg/mL (≈ 210 µM) in experiment [4]; 64 µg/mL (≈ 210 µM) in experiment [5]; > 128 µg/mL in experiment [6]. The minimal inhibitory concentration (MIC) in experiment [7] is 64 µg/mL (≈ 210 µM); in experiment [8] it was 64 µg/mL (≈ 210 µM); in experiment [9], 64 µg/mL (≈ 210 µM); in [10] it was > 128 µg/mL; in experiment [11], > 128 µg/mL; in experiment [12], 64 µg/mL (≈ 210 µM). Besides, the MIC in experiment [13], in [14] and in experiment [15] was 64 µg/mL (≈ 210 µM) throughout.

`O=C(O)c1ccc(/C=C2\SC(=S)N(Cc3nnc(-c4cccc(Cl)c4)o3)C2=O)cc1`: the MIC in [1] is > 128 µg/mL; in experiment [2], > 128 µg/mL; in [3], 8 µg/mL (≈ 17.5 µM); in [4], 16 µg/mL (≈ 34.9 µM); in [5], 16 µg/mL (≈ 34.9 µM); in experiment [6], > 128 µg/mL. The MIC in [7] was 16 µg/mL (≈ 34.9 µM); in experiment [8] it was 16 µg/mL (≈ 34.9 µM); in experiment [9], > 128 µg/mL; in experiment [10], > 128 µg/mL; in experiment [11] it was > 128 µg/mL; in experiment [12] it was 32 µg/mL (≈ 69.9 µM). The MIC in experiment [13] was 8 µg/mL (≈ 17.5 µM); in [14] it was 16 µg/mL (≈ 34.9 µM); in experiment [15] it was > 64 µg/mL.

Consider `O=C1CSC(=S)N1Cc1nnc(-c2ccccc2Cl)o1`, for which the minimal inhibitory concentration (MIC) was 64 µg/mL (≈ 196 µM) in [1]; 16 µg/mL (≈ 49.1 µM) in experiment [2]; 32 µg/mL (≈ 98.2 µM) in experiment [3]; 16 µg/mL (≈ 49.1 µM) in [4]; 16 µg/mL (≈ 49.1 µM) in experiment [5]; > 128 µg/mL in [6]. In addition, the minimal inhibitory concentration (MIC) in experiment [7] is 32 µg/mL (≈ 98.2 µM); in experiment [8], 32 µg/mL (≈ 98.2 µM); in experiment [9] it was 32 µg/mL (≈ 98.2 µM); in [10], > 128 µg/mL; in experiment [11], > 128 µg/mL; in experiment [12], 32 µg/mL (≈ 98.2 µM). Besides, the MIC came to 32 µg/mL (≈ 98.2 µM) in experiment [13], 32 µg/mL (≈ 98.2 µM) in [14] and 64 µg/mL (≈ 196 µM) in experiment [15].

On to `Cc1ccccc1-c1nnc(CN2C(=O)CSC2=S)o1`, for which the MIC in experiment [1] was 128 µg/mL (≈ 419 µM); in experiment [2], 16 µg/mL (≈ 52.4 µM); in experiment [3], 32 µg/mL (≈ 105 µM); in experiment [4], 16 µg/mL (≈ 52.4 µM); in experiment [5], 16 µg/mL (≈ 52.4 µM); in experiment [6], > 128 µg/mL. Moreover, the minimum inhibitory concentration (MIC) in experiment [7] was 64 µg/mL (≈ 210 µM); in experiment [8], 32 µg/mL (≈ 105 µM); in experiment [9] it was 32 µg/mL (≈ 105 µM); in experiment [10], > 128 µg/mL; in [11], > 128 µg/mL; in [12] it was 64 µg/mL (≈ 210 µM). Besides, the minimal inhibitory concentration (MIC) in [13] was 32 µg/mL (≈ 105 µM); in experiment [14], 64 µg/mL (≈ 210 µM); in experiment [15], 64 µg/mL (≈ 210 µM).

On to `O=C1CSC(=S)N1Cc1nnc(-c2cccc(Cl)c2)o1`, for which the MIC in experiment [1] is 64 µg/mL (≈ 196 µM); in experiment [2], 16 µg/mL (≈ 49.1 µM); in experiment [3], 32 µg/mL (≈ 98.2 µM); in experiment [4], 16 µg/mL (≈ 49.1 µM); in experiment [5] it was 16 µg/mL (≈ 49.1 µM); in experiment [6], > 128 µg/mL. The MIC was 32 µg/mL (≈ 98.2 µM) in experiment [7]; 32 µg/mL (≈ 98.2 µM) in experiment [8]; 32 µg/mL (≈ 98.2 µM) in experiment [9]; > 128 µg/mL in experiment [10]; > 128 µg/mL in [11]; 32 µg/mL (≈ 98.2 µM) in experiment [12]. Also, the MIC in experiment [13] came out at 16 µg/mL (≈ 49.1 µM); in experiment [14], 32 µg/mL (≈ 98.2 µM); in experiment [15], 32 µg/mL (≈ 98.2 µM).

Regarding `O=C1CSC(=S)N1Cc1nnc(-c2ccc(Cl)cc2)o1`, the MIC in experiment [1] is 128 µg/mL (≈ 393 µM); in experiment [2] it was 16 µg/mL (≈ 49.1 µM); in [3], 32 µg/mL (≈ 98.2 µM); in experiment [4] it was 32 µg/mL (≈ 98.2 µM); in [5], 16 µg/mL (≈ 49.1 µM); in [6] it was > 128 µg/mL. For the same molecule, the MIC in experiment [7] was 64 µg/mL (≈ 196 µM); in experiment [8], 64 µg/mL (≈ 196 µM); in experiment [9] it was 32 µg/mL (≈ 98.2 µM); in experiment [10] it was > 128 µg/mL; in experiment [11], > 128 µg/mL; in experiment [12], 32 µg/mL (≈ 98.2 µM). The MIC in [13] stood at 32 µg/mL (≈ 98.2 µM); in experiment [14] it was 64 µg/mL (≈ 196 µM); in experiment [15], 32 µg/mL (≈ 98.2 µM).

Consider `O=C(O)c1ccc(/C=C2\SC(=S)N(Cc3nnc(-c4cccc(Br)c4)o3)C2=O)cc1`, for which the MIC in experiment [1] is > 128 µg/mL; in experiment [2], > 128 µg/mL; in experiment [3], 8 µg/mL (≈ 15.9 µM); in [4] it was 16 µg/mL (≈ 31.8 µM); in experiment [5] it was 16 µg/mL (≈ 31.8 µM); in experiment [6], > 128 µg/mL. Also, the minimum inhibitory concentration (MIC) is 16 µg/mL (≈ 31.8 µM) in experiment [7]; 16 µg/mL (≈ 31.8 µM) in experiment [8]; > 128 µg/mL in [9]; > 128 µg/mL in experiment [10]; > 128 µg/mL in experiment [11]; 16 µg/mL (≈ 31.8 µM) in experiment [12]. Moreover, the MIC in experiment [13] is 16 µg/mL (≈ 31.8 µM); in [14], 16 µg/mL (≈ 31.8 µM); in experiment [15], > 64 µg/mL.
